One data set concerns trypsin. In words: Proteolytic resistance: incubation of peptide conformations with trypsin. Type of data set: in vitro ADME. On the procedure: Production of peptide in Lactococcus lactis and characterization of the peptide were performed as described in Plat et al. (Polymers 2011, 3, 1282-1296). […] After inducing dehydration the peptide was harvested from the medium and characterized. After overnight incubation of the purified peptide containing a lysinoalanine at RT in 0.25 % ammonia (w/v) the sample was applied on a C18 column ([…] analytical C18 column 5 μm). Peaks were collected and analyzed by mass spectrometry. Different conformations of the peptide were incubated with trypsin and cpY (Figure 2).

In another data set the target is carboxypeptidase Y (cpY) (Saccharomyces cerevisiae, UniProt P00729). The data set can be described thus: Proteolytic resistance: incubation of peptide conformations with carboxypeptidase Y. Type of data set: in vitro ADME. As to conditions: HPLC peaks of nisin leader - GLP-1 fragment (29-36) peptide treated with cpY. The method, then: Production of peptide in Lactococcus lactis and characterization of the peptide were performed as described in Plat et al. (Polymers 2011, 3, 1282-1296).
carboxypeptidase Y (cpY), sequence (P00729 112-532): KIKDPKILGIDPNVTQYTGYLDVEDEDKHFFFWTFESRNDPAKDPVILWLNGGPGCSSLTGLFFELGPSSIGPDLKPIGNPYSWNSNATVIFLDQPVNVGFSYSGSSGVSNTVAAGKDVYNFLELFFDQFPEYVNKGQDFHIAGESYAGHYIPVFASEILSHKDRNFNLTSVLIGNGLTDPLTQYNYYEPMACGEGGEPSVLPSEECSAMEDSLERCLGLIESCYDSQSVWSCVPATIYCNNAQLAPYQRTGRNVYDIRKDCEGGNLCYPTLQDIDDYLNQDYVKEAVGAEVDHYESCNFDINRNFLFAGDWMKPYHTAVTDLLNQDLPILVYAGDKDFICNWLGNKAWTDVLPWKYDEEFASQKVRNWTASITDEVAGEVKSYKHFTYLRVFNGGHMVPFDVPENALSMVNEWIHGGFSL
After overnight incubation of the purified peptide containing a lysinoalanine at RT in 0.25 % ammonia (w/v) the sample was applied on a C18 column (Alltech, alltima analytical C18 column 5 µm). Peaks were collected and analyzed by mass spectrometry. Different conformations of the peptide were incubated with trypsin and cpY (Figure 2).

As for “nisin leader - I Dha W L V K G R [lysinoalanine-bridged GLP-1 peptide]”, the protection against trypsin result in the data set with trypsin is “resistant”. Also, the “protection against carboxypeptidase Y (cpY)” value at carboxypeptidase Y (cpY) is “resistant”.
